Reference: ChEMBL document CHEMBL4033623, “Synthesis of xanthone derivatives and studies on the inhibition against cancer cells growth and synergistic combinations of them” (Eur J Med Chem, 2017)
Activity calls are given as the source filed them. The rule behind the calls is not given here.

Tests used:
MDA-MB-231 [1] = test: Antiproliferative activity against human MDA-MB-231 cells after 48 hrs by CCK8 assay; format: functional, cell-based; conditions: MDA-MB-231, 48 h
MCF7 = test: Antiproliferative activity against human MCF7 cells after 48 hrs by CCK8 assay; format: functional, cell-based; conditions: MCF7, 48 h
HepG2 [2] = test: Antiproliferative activity against human HepG2 cells after 48 hrs by CCK8 assay; format: functional, cell-based; conditions: HepG2, 48 h
K562 = test: Antiproliferative activity against human K562 cells after 48 hrs by CCK8 assay; format: functional, cell-based; conditions: K562, 48 h
MDA-MB-231 [3] = test: Synergistic antiproliferative activity against human MDA-MB-231 cells at compound to DMXAA mol ratio of 1:1 after 48 hrs by CCK8 assay; format: functional, cell-based; conditions: MDA-MB-231, 48 h
HepG2 [4] = test: Synergistic antiproliferative activity against human HepG2 cells at compound to DMXAA mol ratio of 1:1 after 48 hrs by CCK8 assay; format: functional, cell-based; conditions: HepG2, 48 h
COLO 320 = test: Synergistic antiproliferative activity against human COLO320 cells at compound to DMXAA mol ratio of 1:1 after 48 hrs by CCK8 assay; format: functional, cell-based; conditions: COLO 320, 48 h
L02 = test: Cytotoxicity against human HL-7702 cells after 48 hrs by CCK8 assay; format: cell-based; conditions: L02, 48 h
MDA-MB-231 [5] = test: Induction of apoptosis in human MDA-MB-231 cells assessed as viable cells at 0.2 uM after 48 hrs by Annexin-V/FITC/PI staining based flow cytometry (reference value: 96.51 %); format: functional; conditions: MDA-MB-231, 48 h, read-out: Activity
MDA-MB-231 [6] = test: Induction of apoptosis in human MDA-MB-231 cells assessed as late apoptotic cells at 0.2 uM after 48 hrs by Annexin-V/FITC/PI staining based flow cytometry (reference value: 1.50 %); format: functional
MDA-MB-231 [7] = test: Induction of apoptosis in human MDA-MB-231 cells assessed as viable cells at 0.4 uM after 48 hrs by Annexin-V/FITC/PI staining based flow cytometry (reference value: 96.51 %); format: functional; conditions: MDA-MB-231, 48 h, read-out: Activity
MDA-MB-231 [8] = test: Induction of apoptosis in human MDA-MB-231 cells assessed as early apoptotic cells at 0.4 uM after 48 hrs by Annexin-V/FITC/PI staining based flow cytometry (reference value: 0.44 %); format: functional
MDA-MB-231 [9] = test: Induction of apoptosis in human MDA-MB-231 cells assessed as late apoptotic cells at 0.4 uM after 48 hrs by Annexin-V/FITC/PI staining based flow cytometry (reference value: 1.50 %); format: functional
MDA-MB-231 [10] = test: Induction of apoptosis in human MDA-MB-231 cells assessed as necrotic cells at 0.4 uM after 48 hrs by Annexin-V/FITC/PI staining based flow cytometry (reference value: 1.55 %); format: functional
MDA-MB-231 [11] = test: Induction of apoptosis in human MDA-MB-231 cells assessed as viable cells at 0.8 uM after 48 hrs by Annexin-V/FITC/PI staining based flow cytometry (reference value: 96.51 %); format: functional; conditions: MDA-MB-231, 48 h, read-out: Activity
MDA-MB-231 [12] = test: Induction of apoptosis in human MDA-MB-231 cells assessed as early apoptotic cells at 0.8 uM after 48 hrs by Annexin-V/FITC/PI staining based flow cytometry (reference value: […] %); format: functional
MDA-MB-231 [13] = test: Synergistic induction of apoptosis in human MDA-MB-231 cells assessed as early apoptotic cells at 0.2 uM after 48 hrs in presence of DMXAA by Annexin-V/FITC/PI staining based flow cytometry (reference value: 0.05 %); format: functional
MDA-MB-231 [14] = test: Synergistic induction of apoptosis in human MDA-MB-231 cells assessed as late apoptotic cells at 0.2 uM after 48 hrs in presence of DMXAA by Annexin-V/FITC/PI staining based flow cytometry (reference value: 0.00 %); format: functional
MDA-MB-231 [15] = test: Synergistic induction of apoptosis in human MDA-MB-231 cells assessed as necrotic cells at 0.2 uM after 48 hrs in presence of DMXAA by Annexin-V/FITC/PI staining based flow cytometry (reference value: 0.00 %); format: functional
MDA-MB-231 [16] = test: Synergistic induction of apoptosis in human MDA-MB-231 cells assessed as early apoptotic cells at 0.8 uM after 48 hrs in presence of DMXAA by Annexin-V/FITC/PI staining based flow cytometry (reference value: 0.05 %); format: functional
MDA-MB-231 [17] = test: Synergistic induction of apoptosis in human MDA-MB-231 cells assessed as early apoptotic cells at 0.4 uM after 48 hrs in presence of DMXAA by Annexin-V/FITC/PI staining based flow cytometry (reference value: 0.05 %); format: functional
MDA-MB-231 [18] = test: Synergistic induction of apoptosis in human MDA-MB-231 cells assessed as late apoptotic cells at 0.4 uM after 48 hrs in presence of DMXAA by Annexin-V/FITC/PI staining based flow cytometry (reference value: 0.00 %); format: functional
MDA-MB-231 [19] = test: Decrease in caspase-9 level in human MDA-MB-231 cells at 0.2 to 0.8 uM after 48 hrs by Western blot analysis; format: functional, cell-based
MDA-MB-231 [20] = test: Synergistic induction of apoptosis in human MDA-MB-231 cells assessed as increase in cleaved caspase-3 level at 0.1 to 0.5 uM after 48 hrs in presence of DMXAA by Western blot analysis; format: functional, cell-based
MDA-MB-231 [21] = test: Synergistic induction of apoptosis in human MDA-MB-231 cells assessed as decrease in caspase-9 level at 0.1 to 0.5 uM after 48 hrs in presence of DMXAA by Western blot analysis; format: functional, cell-based
MDA-MB-231 [22] = test: Synergistic induction of apoptosis in human MDA-MB-231 cells assessed as decrease in caspase-3 level at 0.1 to 0.5 uM after 48 hrs in presence of DMXAA by Western blot analysis; format: functional, cell-based
MDA-MB-231 [23] = test: Synergistic increase in p53 level in human MDA-MB-231 cells at 0.1 to 0.5 uM after 48 hrs in presence of DMXAA by Western blot analysis; format: functional, cell-based
MDA-MB-231 [24] = test: Decrease in MDM2 level in human MDA-MB-231 cells at 0.2 to 0.8 uM after 48 hrs by Western blot analysis; format: functional, cell-based
MDA-MB-231 [25] = test: Synergistic decrease in MDM2 level in human MDA-MB-231 cells at 0.1 to 0.5 uM after 48 hrs in presence of DMXAA by Western blot analysis; format: functional, cell-based
MDA-MB-231 [26] = test: Cell cycle arrest in human MDA-MB-231 cells assessed as increase in accumulation at G2/M phase at 0.8 uM after 48 hrs by propidium iodide staining based flow cytometric method relative to control; format: functional
MDA-MB-231 [27] = test: Synergistic cell cycle arrest in human MDA-MB-231 cells assessed as accumulation at S phase 0.2 to 0.8 uM after 48 hrs in presence of DMXAA by propidium iodide staining based flow cytometric method relative to control; format: functional
MDA-MB-231 [28] = test: Synergistic antiproliferative activity against human MDA-MB-231 cells at compound to DMXAA mol ratio of 1:1 after 48 hrs by CCK8 assay relative to compound alone; format: functional
MDA-MB-231 [29] = test: Induction of apoptosis in human MDA-MB-231 cells after 48 hrs by Annexin-V/FITC/PI staining based flow cytometry; format: functional, cell-based
MDA-MB-231 [30] = test: Induction of apoptosis in human MDA-MB-231 cells after 48 hrs in presence of DMXAA by Annexin-V/FITC/PI staining based flow cytometry; format: functional, cell-based

O=c1c2cc(Br)ccc2oc2cc(O)cc(O)c12
IC50 (MDA-MB-231 [1]): 0.46 µM
IC50 (MCF7): 3.4 µM
IC50 (HepG2 [2]): 9.2 µM
IC50 (K562): 13.4 µM
IC50 (MDA-MB-231 [3]): 0.042 µM
IC50 (HepG2 [4]): 7.21 µM
IC50 (COLO 320): 5.12 µM
IC50 (L02): 565 µM
viability at 0.2 µM (MDA-MB-231 [5]): 79.2%
Activity (MDA-MB-231 [6]): 5.35%
viability at 0.4 µM (MDA-MB-231 [7]): 47.9%
Activity (MDA-MB-231 [8]): 1.74%
Activity (MDA-MB-231 [9]): 11.53%
Activity (MDA-MB-231 [10]): 38.81%
viability at 0.8 µM (MDA-MB-231 [11]): 39.1%
Activity (MDA-MB-231 [12]): 2.21%
Activity (MDA-MB-231 [13]): 2.79%
Activity (MDA-MB-231 [14]): 10.2%
Activity (MDA-MB-231 [15]): 38.43%
Activity (MDA-MB-231 [16]): 6.81%
Activity (MDA-MB-231 [17]): 4.7%
Activity (MDA-MB-231 [18]): 26.7%
Activity (MDA-MB-231 [19]): Active
Activity (MDA-MB-231 [20]): Active
Activity (MDA-MB-231 [21]): Active
Activity (MDA-MB-231 [22]): Active
Activity (MDA-MB-231 [23]): Active
Activity (MDA-MB-231 [24]): Active
Activity (MDA-MB-231 [25]): Active
Activity (MDA-MB-231 [26]): 21.8%
Activity (MDA-MB-231 [27]): 26.5%
fold change (FC) (MDA-MB-231 [28]): 10
Activity (MDA-MB-231 [29]): Dose-dependent effect
Activity (MDA-MB-231 [30]): Dose-dependent effect
